Measurements taken from publication PMC5289892 (ACS chemical biology, 2016).

Experiments:
[1] = test system: 1483 HNSCC cells; experiment: Reversibility of inhibition of 1483 cell growth; format: cell-based, human; settings: 1483 cells
[2] = test system: 1483 HNSCC xenografts; experiment: In vivo tumor growth, 1483 HNSCC xenografts; settings: 1483 xenograft-bearing nude mice, daily intraperitoneal, 14 days
[3] = target: T1, mouse COX-2 (Mus musculus, UniProt Q05769); experiment: Purified COX-2 enzyme inhibition assay; format: biochemical
T1 sequence (Q05769 18-604): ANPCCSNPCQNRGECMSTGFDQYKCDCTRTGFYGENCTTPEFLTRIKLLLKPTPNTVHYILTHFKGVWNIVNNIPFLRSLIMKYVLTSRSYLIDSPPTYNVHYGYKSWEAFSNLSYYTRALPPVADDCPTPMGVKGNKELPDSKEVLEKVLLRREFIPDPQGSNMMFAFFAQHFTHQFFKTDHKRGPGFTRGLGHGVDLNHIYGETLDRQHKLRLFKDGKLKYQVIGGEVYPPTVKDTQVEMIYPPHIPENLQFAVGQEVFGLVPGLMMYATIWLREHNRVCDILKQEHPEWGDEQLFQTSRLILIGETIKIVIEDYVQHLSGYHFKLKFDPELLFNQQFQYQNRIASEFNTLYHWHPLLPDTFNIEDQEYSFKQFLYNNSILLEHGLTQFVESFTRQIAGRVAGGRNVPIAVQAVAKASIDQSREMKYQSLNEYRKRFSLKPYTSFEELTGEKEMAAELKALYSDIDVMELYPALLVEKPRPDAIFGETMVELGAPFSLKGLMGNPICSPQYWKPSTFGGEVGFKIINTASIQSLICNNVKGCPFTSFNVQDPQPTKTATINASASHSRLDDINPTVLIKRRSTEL

[4] = test system: primary human mammary epithelial cells (HMEC); experiment: Cell viability assay; format: cell-based; settings: 48 h, read-out: EC50 cytostatic effect
[5] = test system: 1483 HNSCC cells; experiment: Cell viability assay; format: cell-based, human; settings: 48 h
[6] = target: T2, ovine COX-1 (Ovis aries, UniProt P05979); experiment: Purified COX-1 enzyme inhibition assay; format: biochemical
T2 sequence (P05979 25-600): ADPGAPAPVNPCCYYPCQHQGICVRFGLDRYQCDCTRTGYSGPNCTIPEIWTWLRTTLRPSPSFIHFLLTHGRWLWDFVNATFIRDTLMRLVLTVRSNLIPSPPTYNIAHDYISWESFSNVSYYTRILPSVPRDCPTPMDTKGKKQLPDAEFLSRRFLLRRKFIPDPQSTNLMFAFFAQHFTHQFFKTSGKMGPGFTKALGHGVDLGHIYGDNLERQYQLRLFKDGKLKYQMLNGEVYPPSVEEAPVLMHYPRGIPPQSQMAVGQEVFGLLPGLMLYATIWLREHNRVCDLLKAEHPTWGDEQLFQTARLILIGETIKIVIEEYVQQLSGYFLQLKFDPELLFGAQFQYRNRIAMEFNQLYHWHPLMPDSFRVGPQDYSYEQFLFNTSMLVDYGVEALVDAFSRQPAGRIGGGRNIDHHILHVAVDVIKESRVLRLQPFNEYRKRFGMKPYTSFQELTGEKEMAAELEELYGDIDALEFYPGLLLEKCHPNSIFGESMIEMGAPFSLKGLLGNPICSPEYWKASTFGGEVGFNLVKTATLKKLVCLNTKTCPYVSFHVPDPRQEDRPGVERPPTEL

[7] = Animal weight in xenograft-bearing mice; settings: 1483 xenograft-bearing mice, 14 days treatment

SMILES: COc1cc([C@@H]2c3cc4c(cc3[C@H](O)[C@H]3COC(=O)[C@H]23)OCO4)cc(OC)c1OC [Podophyllotoxin]
- effect of washout on reduction in cell number ([1]; 10 μM for 5 h, washout, further 72 h): significant recovery of cell number
- reduction of total cell number ([1]; 10 μM, 72 h): ~ 80%
- effect on tumor growth [2]: no effect on tumor size
- COX-2 inhibition, in words [3]: inactive
- EC50 [4]: 360 nM
- lowest cell number reached, % of vehicle-treated cultures ([5]; 1483 cells): ~ 35%
- EC50 ([5]; Homo sapiens, read-out: EC50 reduction in cell number): 62 nM
- COX-1 inhibition, in words [6]: inactive
- effect on animal weight [7]: decrease in animal weight
